ED50 data for eight compounds are collected here from patent EP0106487A2, “Improvements in or relating to novel bridged hexahydrobenz(f)isoquinolines” (ELI LILLY AND COMPANY, priority 1982, dated 1984).

Structures can show the parent of a compound that is named as a salt.

Assay [1] concerns Cox standard strain albino male mice. As to the kind of experiment: Mouse writhing inhibition assay (acetic acid-induced writhing). In kind it is in vivo. As to conditions: po, p.o. administration (gavage, 5% acacia suspension, sixty minutes before acetic acid), dose required to inhibit induced writhing by fifty percent. The source says:
Mouse Writhing Inhibition Assay
Writhing, characterized by contraction of the abdominal musculature, extension of the hindlegs, and rotation of the trunk, was induced in Cox standard strain albino male mice. The mice,. weighing 18-24 grams, were fasted overnight and given the test compound by gavage in an acacia suspension (5%) sixty minutes before writhing was induced by the intraperitoneal administration of acetic acid (0.60 percent). Each treatment group consisted of 5 mice. The total number of writhes for the treatment group was determined during a 10-minute observation starting 5 minutes after acetic acid administration.
The results in the mouse writhing assay are presented as the effective dose in mg./kg. of the tested compound required to inhibit induced writhing in the test animals by fifty percent (ED50). Results are presented in Column II for both subcutaneous (s.c.) and oral (p.o.) administration of the test compound as compared to the reference compound meperidine.

Assay [2] shares this test system. The assay is described as above. In kind it is in vivo. The settings on record: sc, s.c. administration, dose required to inhibit acetic acid (0.60 percent, i.p.) induced writhing by fifty percent.

`CCOC(=O)C1(c2ccccc2)CCN(C)CC1` [meperidine, reference compound]: the median effective dose (ED50) in assay [1] is 21 mg/kg; in assay [2], 2.8 mg/kg.
For `COc1ccc2c(c1)C13CCCC1(CC2)CNCC3.Cl` (stereo not shown) [Example 3, 1,2,3,4,5,6-hexahydro-9-methoxy-4a,10b-propanobenz[f]isoquinoline hydrochloride] the same measures were 66 mg/kg and 56 mg/kg.
For `CN1CCC23CCCC2(CCc2ccc(O)cc23)C1` (racemic) [Example 2, 1,2,3,4,5,6-hexahydro-3-methyl-4a,lOb-propanobenz[f]isoquinolin-9-ol maleate] the same measures were 17 mg/kg and 2.4 mg/kg.
For the compound `CN1CCC23CCCC2(CCc2ccccc23)C1` (racemic) [Example 8, 1,2,3,4,5,6-hexahydro-3-methyl-propanobenz-[f]isoquinoline hydrobromide], the ED50 was determined as 68 mg/kg in assay [1] and 23 mg/kg in assay [2].
For `Oc1ccc2c(c1)C13CCCC1(CC2)CN(CC1CC1)CC3` (stereo not shown) [Example 6, 1,2,3,4,5,6-hexahydro-3-cyclopropylmethyl-4a,10b-propanobenz[f]isoquinolin-9-ol] the same measures were over 80 mg/kg and 60 mg/kg.
In the case of `C=CCN1CCC23CCCC2(CCc2ccc(O)cc23)C1` (stereo not shown) [Example 7, 1,2,3,4,5,6-hexahydro-3-(2-propenyl)-4a,10b-propanobenz-[f]isoquinolin-9-ol], the ED50 in assay [1] and in assay [2] was over 80 mg/kg in each case.
As to `COc1ccc2c(c1)C13CCCC1(CC2)CN(C)CC3.Cl` (stereo not shown) [Example 1, 1,2,3,4,5,6-hexahydro-3-methyl-9-methoxy-4a,10b-propanobenz[f]isoquinoline hydrochloride], the median effective dose (ED50) in assay [1] was 23 mg/kg; in assay [2], 17 mg/kg.
For `Oc1ccc2c(c1)C13CCCC1(CC2)CNCC3` (stereo not shown) [Example 4, 1,2,3,4,5,6-hexahydro-4a,10b-propanobenz[f]-isoquinolin-9-ol] the same measures were 78 mg/kg and 52 mg/kg.
